# Where two headings read alike, the source gives them in different places.
# Legend:
# [1] = tested on: HT29 (colon) cancer cells; experiment: MTT growth inhibition assay, HT29; assay type: cell-based; conditions: ± standard error, read-out: Growth Inhibition Concentration, GI50
# Method: (§1) The Schiff bases and their organotin(IV) compounds were screened for in vitro cytotoxicity against a panel of 12 cancer cell lines: EJ-28 (muscle invasive bladder), RT-112 (minimum-invasive bladder), HT29 (colon), U87 and SJ-G2 (glioblastoma), MCF-7 (breast), A2780 (ovarian), H460 (lung), A431 (skin), DU145 (prostate), BE2-C (neuroblastoma), MIA (pancreatic) and one normal breast cell line (MCF-10A) using the MTT metabolic assay (Figure 6). After 72 h of incubation, a dose-dependent […] effect towards the cancer cell lines was measured at very low micromolar (µM) concentrations of the compounds. The growth inhibition concentration of the Schiff bases and their organotin(IV) compounds required to inhibit 50% cell proliferation relative to the cells that were treated with DMSO (control) are given in Table 2. The stability of these compounds was assessed in DMSO as well as in a mixture of DMSO-H2O. The absorbance obtained from UV-vis spectroscopy analysis was monitored for 72 h, and an unchanged pattern in the spectra was indicative that the compounds were stable in both the solvent systems tested.
# (§2) For HT29 (colon), U87 and SJ-G2 (glioblastoma), MCF-7 (breast), A2780 (ovarian), H460 (lung), A431 (skin), Du145 (prostate), BE2-C (neuroblastoma), MIA (pancreas) cell lines and one normal breast cell line, MCF-10A (normal breast), the MTT assays were performed using the following method:
# (§3) Stock solutions were prepared as follows and stored at −20 °C: Trial compounds were stored as 10 mM solutions in DMSO. All cell lines were cultured in a humidified atmosphere 5% CO2 at 37 °C. The cancer cell lines were maintained in Dulbecco’s modified Eagle’s medium (DMEM) (Trace Biosciences) supplemented with 10% foetal bovine serum, 10 mM sodium bicarbonate, penicillin (100 IU/mL), streptomycin (100 μg/mL) and glutamine (4 mM). The normal cell line, MCF-10A was cultured in DMEM:F12 (1:1) cell culture media, 5% heat inactivated horse serum, supplemented with penicillin (50 IU/mL), streptomycin (50 μg/mL), 20mM Hepes, L-glutamine (2 mM), epidermal growth factor (20 ng/mL), hydrocortisone (500 ng/mL), cholera toxin (100 ng/mL) and insulin (10 μg/mL).
# (§4) Cells in logarithmic growth were transferred to 96-well plates. Cytotoxicity was determined by plating cells in duplicate in 100 μL medium at a density of 2500–4000 cells/well. On day 0 (24 h after plating), when the cells were in logarithmic growth, 100 μL medium, with or without the test agent, was added to each well. After 72 h drug exposure, growth inhibitory effects were evaluated using the MTT (3-[4,5-dimethylthiazol-2-yl]-2,5-diphenyltetrazolium bromide) assay and absorbance read at 540 nm. Percentage growth inhibition was determined at a fixed drug concentration of 25 μM. A value of 100% was indicative of complete cell growth inhibition. Those analogues showing appreciable percentage growth inhibition underwent further dose-response analysis allowing for the calculation of a GI50 value. This value is the drug concentration at which cell growth is 50% inhibited based on the difference between the optical density values on day 0 and those at the end of drug exposure.
# [2] = tested on: RT-112 (minimum-invasive bladder) cancer cells; experiment: MTT cytotoxicity assay, RT-112; assay type: cell-based, human; conditions: RT-112 cells, 72 h, ± standard error, read-out: Growth Inhibition Concentration, GI50
# Method: as §1
# (§5) The inhibitory effect of the synthesised compounds on the growth of bladder (EJ-28 and RT-112) cancer cells was evaluated by MTT assay. […] RT-112 and EJ-28, human bladder cancer cell lines used in this study (ATCC, Manassas, VA, USA) were cultured in RPMI-1640 (High glucose) medium supplemented with 10% fetal bovine serum containing 1% penicillin. The cells were cultured at 37 °C in a humidified atmosphere of 5% CO2 in air. Cells were seeded in 96-well plates at 6000 cells per well for 24 h, then they were treated with different concentrations of compounds for 72 h. The medium was subsequently removed and the wells were washed with 200 µL of phosphate buffer saline. Aliquots of 20 µL of 3-(4,5-dimethylthiazol-2-yl)-2,5-diphenyltetrazolium bromide (MTT) was added to each well and incubated for 4 h at 37 °C. Aliquots of 200 µL of media was then removed from each well and 200 µL of DMSO was added. Optical density (OD) was measured using an ELISA plate reader at 570 nm. Control wells (100% viability), containing media and DMSO, were included in all the experiments. All data points represented an average of triplicate assays. Cytotoxicity was expressed as CD50, i.e., the concentration that reduced the absorbance of treated cells by 50% with reference to the control (untreated cells).
# [3] = tested on: SJ-G2 (glioblastoma) cancer cells; experiment: MTT growth inhibition assay, SJ-G2; assay type: cell-based; conditions: for GI50: MTT, 72 h, ± standard error, read-out: Growth Inhibition Concentration, GI50
# Method: as §1, §2, §3, §4
# [4] = tested on: MCF-10A (normal breast) cell line; experiment: MTT growth inhibition assay, MCF10A; assay type: cell-based; conditions: MCF10A normal breast cells, 72 h, ± standard error, read-out: Growth Inhibition Concentration, GI50
# Method: as §1, §2, §3, §4
# [5] = tested on: calf thymus DNA (CT-DNA); experiment: CT-DNA binding by UV-vis absorption titration; conditions: for Bathochromism Shift (nm) / Hypochromism, (%): CT-DNA, UV-vis absorption titration; for Gibbs Free Energy: interaction with CT-DNA
# Method: Both theoretical and experimental DNA binding of the synthesised organotin(IV) compounds with DNA were investigated. The interaction of organotin(IV) compounds with CT-DNA was elucidated via UV-visible absorption spectroscopy. […] The absorption spectra of diphenyltin(IV) compounds at a constant concentration (50 μM) in the absence and the presence of different concentrations of CT-DNA are shown in Figure 8. Upon increasing concentrations of CT-DNA, hypochromism and bathochromism occurred at around 350–377 nm indicating strong π–π stacking interactions between the aromatic chromophore of the organotin(IV) compounds and the nitrogeneous pair of the DNA strand [11, 70]. The same hypochromism and bathochromism shifts were also observed in other transitions. In order to compare the binding strength of the organotin(IV) compounds to CT-DNA, the intrinsic binding constants (Kb) were quantitatively determined and are presented in Table 3.
# DNA binding experiments were carried out at 25°C. DNA concentration per nucleotide was determined using the molar absorption coefficient (6600 M^−1 cm^−1) at 260 nm. […] Absorption titration experiments were performed maintaining the concentration of the organotin(IV) compounds solutions at 50 µM and gradually increasing the concentration of CT-DNA. The organotin(IV) compounds were dissolved in DMSO and diluted with Tris-HCI buffer at room temperature (25 °C). The solutions were scanned over 230–600 nm. Absorbance values were recorded 10 min after the addition of DNA solution. The binding constant, Kb was determined using the equation: [DNA]/(εa−εf)=[DNA]/(εb−εf)+1/Kb(εb−εf) where [DNA] is the concentration of DNA in base pairs, εa corresponds to the apparent molar extinction coefficient Aabs/[M], εf corresponds to the extinction coefficient for the free organotin [M] and εb corresponds to the extinction coefficient for the fully bound organotin compound.
# [6] = tested on: EJ-28 (muscle invasive bladder) cancer cells; experiment: MTT cytotoxicity assay, EJ-28; assay type: cell-based, human; conditions: EJ-28 cells, 72 h, ± standard error, read-out: Growth Inhibition Concentration, GI50
# Method: as §1, §5
# [7] = tested on: U87 (glioblastoma) cancer cells; experiment: MTT growth inhibition assay, U87; assay type: cell-based; conditions: 72 h, ± standard error, read-out: Growth Inhibition Concentration, GI50
# Method: as §1, §2, §3, §4
# [8] = tested on: MCF-7 (breast) cancer cells; experiment: MTT growth inhibition assay, MCF-7; assay type: cell-based; conditions: 72 h, ± standard error, read-out: Growth Inhibition Concentration, GI50
# Method: as §1, §2, §3, §4
# [9] = tested on: A2780 (ovarian) cancer cells; experiment: MTT growth inhibition assay, A2780; assay type: cell-based; conditions: 72 h, ± standard error, read-out: Growth Inhibition Concentration, GI50
# Method: as §1, §2, §3, §4
# [10] = tested on: Du145 (prostate) cancer cells; experiment: MTT growth inhibition assay, Du145; assay type: cell-based; conditions: ± standard error, read-out: Growth Inhibition Concentration, GI50
# Method: as §1, §2, §3, §4
# [11] = tested on: BE2-C (neuroblastoma) cancer cells; experiment: MTT growth inhibition assay, BE2-C; assay type: cell-based; conditions: 72 h, ± standard error, read-out: Growth Inhibition Concentration, GI50
# Method: as §1, §2, §3, §4
# [12] = tested on: H460 (lung) cancer cells; experiment: MTT growth inhibition assay, H460; assay type: cell-based; conditions: ± standard error, read-out: Growth Inhibition Concentration, GI50
# Method: as §1, §2, §3, §4
# [13] = tested on: MIA (pancreatic) cancer cells; experiment: MTT growth inhibition assay, MIA; assay type: cell-based; conditions: 72 h, ± standard error, read-out: Growth Inhibition Concentration, GI50
# Method: as §1, §2, §3, §4
# [14] = tested on: A431 (skin) cancer cells; experiment: MTT growth inhibition assay, A431; assay type: cell-based; conditions: ± standard error, read-out: Growth Inhibition Concentration, GI50
# Method: as §1, §2, §3, §4
# [15] = Homo sapiens, MCF7, MCF-7 cells
"GI50 ([1]; Homo sapiens, HT-29, 72 h) [µM]",Structure (SMILES),GI50 ([1]; 72 h) [µM],GI50 [2] [µM],GI50 [3] [µM],GI50 [4] [µM],Bathochromism Shift (nm) [5] [nm],"Hypochromism, (%) [5] [%]",Gibbs Free Energy [5] [kcal/mol],GI50 [6] [µM],GI50 [7] [µM],GI50 ([8]; MCF-7 cells) [µM],GI50 [9] [µM],GI50 ([10]; 72 h) [µM],GI50 [11] [µM],GI50 ([12]; 72 h) [µM],GI50 [13] [µM],GI50 ([14]; 72 h) [µM],GI50 ([2]; Homo sapiens) [µM],"GI50 ([4]; Homo sapiens, MCF-10A) [µM]",GI50 ([6]; Homo sapiens) [µM],further results
–,"COc1cccc2c1[O][Sn]([CH3])([CH3])[S]C(SCc1ccccc1C)=NN=C2 [Me2Sn(S2MoVa), Dimethyltin(IV) [S-2-Methybenzyl-β-N-(2-hydroxy-3-methoxybenzylmethylene) dithiocarbazate]]",2.7 ± 0.1,2.4 ± 0.77,2.5 ± 0.3,3 ± 0.09,10,37.97,-7.55,2.5 ± 0.78,3.6 ± 0.23,3.1 ± 0.12,3.1 ± 0.06,3.9 ± 0.03,2.9 ± 0.03,3.3 ± 0.13,3.9 ± 0.07,3 ± 0.03,–,–,–,–
–,"COc1cccc2c1[O][Sn]([CH3])([CH3])[S]C(SCc1ccc(C)cc1)=NN=C2 [Me2Sn(S4MoVa), Dimethyltin(IV) [S-4-Methybenzyl-β-N-(2-hydroxy-3-methoxybenzylmethylene) dithiocarbazate]]",6.9 ± 3.5,> 5,3.1 ± 0.55,3.3 ± 0.15,7,43.72,-7.67,> 5,3.3 ± 0.18,3.3 ± 0.32,3.1 ± 0.63,4.2 ± 0.1,3.3 ± 0.23,4.7 ± 0.46,8.9 ± 1.3,4.2 ± 0.34,–,–,–,–
–,"COc1cccc2c1[O][Sn]([CH3])([CH3])[S]C(SCc1ccccc1)=NN=C2 [Me2Sn(SBoVa), Dimethyltin(IV) [S-Benzyl-β-N-(2-hydroxy-3-methoxybenzylmethylene) dithiocarbazate]]",2.8 ± 0.15,2.4 ± 0.33,2.1 ± 0.12,2.8 ± 0.41,1,53.26,-8.99,3.4 ± 0.3,4.5 ± 0.19,2.5 ± 0.21,3.2 ± 0.03,3.2 ± 0.13,2.7 ± 0.13,3.8 ± 0.1,5 ± 0.09,3.2 ± 0.03,–,–,–,–
–,"COc1cccc2c1[O][Sn]([c]1ccccc1)([c]1ccccc1)[S]C(SCc1ccccc1)=NN=C2 [Ph2Sn(SBoVa), Diphenyltin(IV) [S-Benzyl-β-N-(2-hydroxy-3-methoxybenzylmethylene) dithiocarbazate]]",1.2 ± 0.22,0.58 ± 0.29,0.74 ± 0.15,1.3 ± 0.2,12,70.72,-8.29,0.32 ± 0.05,1.1 ± 0.39,0.9 ± 0.16,0.23 ± 0.03,1.4 ± 0.33,0.5 ± 0.05,2.2,0.43 ± 0.04,1.6 ± 0.07,–,–,–,greater activity than respective Schiff base ([3]; GI50 comparison): 3 fold
3.9 ± 0.71,"COc1cccc(/C=N/NC(=S)SCc2ccccc2C)c1O [S2MoVaH, S-2-Methybenzyl-β-N-(2-hydroxy-3-methoxybenzylmethylene) Dithiocarbazate]",–,–,3 ± 0.09,–,–,–,–,–,–,–,–,–,–,–,–,–,4.6 ± 0.45,3.1 ± 0.07,3.4 ± 0.47,"GI50 ([7]; Homo sapiens, U-87 MG): 4.3 ± 0.3 µM; GI50 [8, 15]: 2.7 ± 0.21 µM; melting point: 180 to 183 °C; GI50 ([9]; Homo sapiens): 3.2 ± 0.15 µM; GI50 ([10]; Homo sapiens, DU-145, 72 h): 4.1 ± 0.09 µM; GI50 ([11]; Homo sapiens, BE(2)-C): 3.1 µM; GI50 ([12]; Homo sapiens, NCI-H460, 72 h): 4.3 ± 0.12 µM; GI50 ([13]; Pancreatic cancer cell): 4.9 ± 0.37 µM; GI50 ([14]; Homo sapiens, A-431, 72 h): 3.8 ± 0.03 µM"
8 ± 3.5,"COc1cccc(/C=N/NC(=S)SCc2ccc(C)cc2)c1O [S4MoVaH, S-4-Methybenzyl-β-N-(2-hydroxy-3-methoxybenzylmethylene)dithiocarbazate]",–,–,3.3 ± 0.87,–,–,–,–,–,–,–,–,–,–,–,–,–,3.2 ± 0.51,3.5 ± 0.23,3.6 ± 0.44,"GI50 ([7]; Homo sapiens, U-87 MG): 3.9 µM; GI50 [8, 15]: 3.5 µM; melting point: 177 to 178 °C; GI50 ([9]; Homo sapiens): 3.1 ± 0.4 µM; GI50 ([10]; Homo sapiens, DU-145, 72 h): 5.4 ± 0.23 µM; GI50 ([11]; Homo sapiens, BE(2)-C): 3.6 ± 0.27 µM; GI50 ([12]; Homo sapiens, NCI-H460, 72 h): 5.5 ± 0.73 µM; GI50 ([13]; Pancreatic cancer cell): 11 ± 2.3 µM; GI50 ([14]; Homo sapiens, A-431, 72 h): 4.2 ± 0.74 µM"

# — PMC6413231, “o-Vanillin Derived Schiff Bases and Their Organotin(IV) Compounds: Synthesis, Structural Characterisation, In-Silico Studies and Cytotoxicity” (International Journal of Molecular Sciences, 2019)
